Tested on: PBMC (polyclonal gluten-specific T cells) of paediatric and adult CD patients
Experiment: IFN-γ ELISpot of PBMC after 3 day oral wheat challenge (SFU, % of maximal peptide response, dominance scores, EC50; Examples 5-6)
Type: cell-based, human
Details: for Cross-reactive T cell response: following wheat challenge

Sequence: QPFPQPEQPFSWQ
- Cross-reactive T cell response (subject A, 11-17yrs): 0 SFU
- Significant response as a percentage of maximal peptide SFU (subject D, 11-17yrs): ′′′ (41-70% = ′′′)
- Cross-reactive T cell response (subject D, 11-17yrs): 16 SFU
- Significant response as a percentage of maximal peptide SFU (subject E, 11-17yrs): ′ (11-20% = ′)
- Cross-reactive T cell response (subject E, 11-17yrs): 34 SFU
- Significant response as a percentage of maximal peptide SFU (subject F, 11-17yrs): ′ (11-20% = ′)
- Cross-reactive T cell response (subject F, 11-17yrs): 19 SFU
- Cross-reactive T cell response (subject G, 11-17yrs): 6 SFU
- Cross-reactive T cell response (subject H): 1 SFU
- Cross-reactive T cell response (subject I (3-5yrs/6-10yrs part)): 2 SFU
- Significant response as a percentage of maximal peptide SFU (subject J): ′′′ (41-70% = ′′′)
- Cross-reactive T cell response (subject J (3-5yrs/6-10yrs part)): 79 SFU
- Significant response as a percentage of maximal peptide SFU (subject K): ′′ (21-40% = ′′)
- Cross-reactive T cell response (subject K (3-5yrs/6-10yrs part)): 20 SFU
- Cross-reactive T cell response (subject P, 11-17yrs): 14 SFU
- Significant response as a percentage of maximal peptide SFU (subject Q, 11-17yrs): ′′ (21-40% = ′′)
- Cross-reactive T cell response (subject Q, 11-17yrs): 29 SFU
- Significant response as a percentage of maximal peptide SFU (subject T, 11-17yrs): ′′′ (41-70% = ′′′)
- Cross-reactive T cell response (subject T, 11-17yrs): 41 SFU
- Significant response as a percentage of maximal peptide SFU (subject U, 11-17yrs): ′′ (21-40% = ′′)
- Cross-reactive T cell response (subject U, 11-17yrs): 18 SFU
- Significant response as a percentage of maximal peptide SFU (subject V): + (>70% = +)
- Cross-reactive T cell response (subject V (3-5yrs/6-10yrs part)): 25 SFU
- Cross-reactive T cell response (subject W (3-5yrs/6-10yrs part)): 3 SFU
- Cross-reactive T cell response (subject Y (3-5yrs/6-10yrs part)): 8 SFU
- Significant response as a percentage of maximal peptide SFU (subject five): + (>70% = +)
- Cross-reactive T cell response (subject five (3-5yrs/6-10yrs part)): 42 SFU
- Cross-reactive T cell response (subject nine, 11-17yrs): 1 SFU
- Cross-reactive T cell response (subject seven (3-5yrs/6-10yrs part)): 6 SFU
- Cross-reactive T cell response (subject six (3-5yrs/6-10yrs part)): 8 SFU
- Cross-reactive T cell response (subject ten (3-5yrs/6-10yrs part)): 0 SFU
- Significant response as a percentage of maximal peptide SFU (subject two): ′′ (21-40% = ′′)
- Cross-reactive T cell response (subject two (3-5yrs/6-10yrs part)): 26 SFU

Reference: patent US20170232083A1, “METHODS OF DIAGNOSIS AND TREATMENT OF CELIAC DISEASE IN CHILDREN” (priority 2014, published 2017)
